These results are taken from patent US8969554B2, “6-acyl-1,2,4-triazine-3,5-dione derivative and herbicides” (Kumiai Chemical Industry Co., Ltd., priority 2010, dated 2015).

The structures appear in SMILES notation.

Format in all cases: in vivo
Set-up in all cases: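 index 0 to 10 in 10% steps of herbicidal effect with 10 meaning complete death and 0 below 10%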

Assay [1] deals with A. retroflexus. Description: Herbicidal activity by field foliage treatment (Test example 3). Conditions: 1000 g effective component per hectare, day 14 after the treatment. As to the method:
(§1) [table] Test for Determining Herbicidal Activity by Field Foliage Treatment A 80 cm^2 wide plastic pot was filled with a field soil and seeds of each of Indian millet and A. retroflexus were sowed and then incubated for 2 weeks in a green house. The wettable powder produced with reference to the Formulation example 1 was diluted water, and applied from the air to entire body of the plant as foliage treatment by using a small sprayer in an amount of 1000 liters per hectare so that the effective component is 1000 g per hectare. After that, the plants were cultivated in a greenhouse, and on day 14 after the treatment, evaluation was made by the criteria described in Table 72 for determining the herbicidal effects.

The subject of assay [2] is Indian millet. Described as above. The note with it: 1000 g effective component per hectare, day 14 after the treatment. How it is done:
as §1

Assay [3] relates to Echinochloa crus-galli. The assay is described as above. Conditions: 1000 g effective component per hectare, day 14 after the treatment. How it is done:
as §1, with “Test example 3” for “[table]”

The subject of assay [4] is Indian millet. Description: Herbicidal activity by field soil treatment (Test example 2). Conditions: 1000 g effective component per hectare, day 21 after the treatment. As to the method: (§2) [table] Test for Determining Herbicidal Activity by Field Soil Treatment A 80 cm^2 wide plastic pot was filled with a field soil and seeds of each of Echinochloa crus-galli, foxtail, Indian millet, and A. retroflexus were sowed and then covered with soil. The wettable powder produced with reference to the Formulation example 1 was diluted water, and applied on the soil surface by using a small sprayer in an amount of 1000 liters per hectare so that the effective component is 1000 g per hectare. After that, the plants were cultivated in a greenhouse, and on day 21 after the treatment, evaluation was made by the criteria described in Table 72 for determining the herbicidal effects.

Assay [5] concerns Echinochloa crus-galli. The description is as above. The note with it: 1000 g effective component per hectare, day 21 after the treatment. How it is done:
as §2

Another assay concerns Monochoria vaginalis. Description: Herbicidal activity by paddy field soil treatment (Test Example 1). Conditions: 1000 g of effective component per hectare, evaluated on day 21 after the treatment, criteria of Table 72. As to the method:
(§3) Test for Determining Herbicidal Activity by Paddy Field Soil Treatment A 100 cm^2 wide plastic pot was filled with a paddy field soil and, after watering and shuffling, seeds of each of Echinochloa oryzicola, Monochoria vaginalis, and Scirpus juncoides Rocxb. were sowed and watered to a depth of 3 cm. On the next day, the wettable powder obtained in view of Formulation example 1 was diluted with water and applied on water surface. The application amount was 1000 g of effective component per hectare. After that, the plants were cultivated in a greenhouse, and on day 21 after the treatment, evaluation was made by the criteria of Table 72 for determining the herbicidal effects. [table]

The next assay relates to Scirpus juncoides Rocxb. The assay is described as above. Conditions: applied on water surface, 1000 g of effective component per hectare, day 21 after the treatment. As to the method:
as §3

The test system of the next assay is Echinochloa oryzicola. Described as above. The note with it: 1000 g of effective component per hectare, evaluated on day 21 after the treatment, criteria of Table 72. As to the method:
as §3

Assay [6] concerns A. retroflexus. Description: Herbicidal activity by field soil treatment (Test example 2). Conditions: 1000 g effective component per hectare, day 21 after the treatment. As to the method: as §2

Consider `Cc1cnc(-n2c(=O)c(C(=O)C3=C(O)CCCC3=O)nn(C)c2=O)cn1` [I-292], for which, in the assay on A. retroflexus [1], the “herbicidal effect index, Amaranthus retroflexus” value is listed as 10. Also, the “herbicidal effect index, Abutilon theophrasti” value in the assay with Indian millet [2] was 10; with Indian millet [4], 9. The results for the “herbicidal effect index, Echinochloa crus-galli” value in the assay on Echinochloa crus-galli [3] and with Echinochloa crus-galli [5] were 8 and 7, respectively. In addition, the “Herbicidal effects index number, Monochoria vaginalis” value in the assay with Monochoria vaginalis turned out to be 10. The “herbicidal effect index, S. juncoides Rocxb.” value in the assay with Scirpus juncoides Rocxb. is given as 10. For the same compound, in the assay on Echinochloa oryzicola, the “Herbicidal effects index number, Echinochloa oryzicola” value is 10.
Take `CCCCCCn1c(=O)c(C(=O)C2=C(O)CCCC2=O)nn(C)c1=O` [I-9]: the “herbicidal effect index, Amaranthus retroflexus” value in the assay with A. retroflexus [1] and with A. retroflexus [6] was 10 in each case. Moreover, in the assay on Indian millet [2], the “herbicidal effect index, Abutilon theophrasti” value is 10. Moreover, the “herbicidal effect index, Echinochloa crus-galli” value in the assay with Echinochloa crus-galli [3] came out at 10; in the assay with Echinochloa crus-galli [5] it was 7. Besides, the “Herbicidal effects index number, Monochoria vaginalis” value with Monochoria vaginalis amounted to 8. Further, the “herbicidal effect index, S. juncoides Rocxb.” value in the assay on Scirpus juncoides Rocxb. was 8. In addition, the “Herbicidal effects index number, Echinochloa oryzicola” value with Echinochloa oryzicola is recorded as 8.
Regarding `COc1ccc(-n2c(=O)c(C(=O)C3=C(O)CCCC3=O)nn(C)c2=O)c(OC)c1` [I-96], the “herbicidal effect index, Amaranthus retroflexus” value in the assay with A. retroflexus [1] and with A. retroflexus [6] was 10 each time. Moreover, the “herbicidal effect index, Abutilon theophrasti” value in the assay on Indian millet [2] was 9; in the assay on Indian millet [4], 10. The “herbicidal effect index, Echinochloa crus-galli” value in the assay with Echinochloa crus-galli [3] turned out to be 7. Besides, the “Herbicidal effects index number, Monochoria vaginalis” value in the assay on Monochoria vaginalis was found to be 10. Also, the “herbicidal effect index, S. juncoides Rocxb.” value with Scirpus juncoides Rocxb. was determined as 10. Also, in the assay with Echinochloa oryzicola, the “Herbicidal effects index number, Echinochloa oryzicola” value was found to be 8.
On to `CC(C)Cn1c(=O)c(C(=O)C2=C(O)CCCC2=O)nn(-c2ccccn2)c1=O` [I-307], for which the figures for the “herbicidal effect index, Amaranthus retroflexus” value in the assay with A. retroflexus [1] and with A. retroflexus [6] were 9 and 10, respectively. The “herbicidal effect index, Abutilon theophrasti” value was 10 with Indian millet [2] and 9 in the assay on Indian millet [4]. Besides, the “herbicidal effect index, Echinochloa crus-galli” value in the assay on Echinochloa crus-galli [5] was determined as 7. The “Herbicidal effects index number, Monochoria vaginalis” value with Monochoria vaginalis was 9. Moreover, the “herbicidal effect index, S. juncoides Rocxb.” value in the assay on Scirpus juncoides Rocxb. is reported as 8. Besides, the “Herbicidal effects index number, Echinochloa oryzicola” value with Echinochloa oryzicola worked out at 8.
Regarding `Cn1nc(C(=O)C2=C(O)CCCC2=O)c(=O)n(N2CCSCC2)c1=O` [I-203], the figures for the “herbicidal effect index, Amaranthus retroflexus” value with A. retroflexus [1] and with A. retroflexus [6] were 10 and 7, respectively. Moreover, in the assay on Indian millet [2], the “herbicidal effect index, Abutilon theophrasti” value stood at 9. Further, the “herbicidal effect index, Echinochloa crus-galli” value with Echinochloa crus-galli [3] is 6; in the assay on Echinochloa crus-galli [5] it was 9. Also, the “Herbicidal effects index number, Monochoria vaginalis” value with Monochoria vaginalis is given as 10. The “herbicidal effect index, S. juncoides Rocxb.” value in the assay on Scirpus juncoides Rocxb. is 10. For the same compound, in the assay with Echinochloa oryzicola, the “Herbicidal effects index number, Echinochloa oryzicola” value is 10.
With `Cc1ccc(-n2c(=O)c(C(=O)C3=C(O)CCCC3=O)nn(C)c2=O)cc1` [I-59], the “herbicidal effect index, Amaranthus retroflexus” value with A. retroflexus [1] and in the assay with A. retroflexus [6] was 10 throughout. Moreover, the “herbicidal effect index, Abutilon theophrasti” value with Indian millet [2] and in the assay on Indian millet [4] was 10 in each case. Also, in the assay on Echinochloa crus-galli [3], the “herbicidal effect index, Echinochloa crus-galli” value was determined as 7. The “Herbicidal effects index number, Monochoria vaginalis” value in the assay on Monochoria vaginalis worked out at 10. Moreover, the “herbicidal effect index, S. juncoides Rocxb.” value with Scirpus juncoides Rocxb. amounted to 10. Moreover, the “Herbicidal effects index number, Echinochloa oryzicola” value with Echinochloa oryzicola is 10.
With `COc1ccc(-n2c(=O)c(C(=O)C3=C(O)CCCC3=O)nn(C)c2=O)nc1` [I-290], the “herbicidal effect index, Amaranthus retroflexus” value came to 10 in the assay on A. retroflexus [1] and 8 in the assay on A. retroflexus [6]. Also, the results for the “herbicidal effect index, Abutilon theophrasti” value with Indian millet [2] and in the assay on Indian millet [4] were 9 and 10, respectively. The “Herbicidal effects index number, Monochoria vaginalis” value in the assay with Monochoria vaginalis was found to be 10. For the same compound, the “herbicidal effect index, S. juncoides Rocxb.” value in the assay with Scirpus juncoides Rocxb. was 10.
For the compound `Cn1nc(C(=O)C2=C(O)CCCC2=O)c(=O)n(-c2ccc3c(c2)OCO3)c1=O` [I-170], the “herbicidal effect index, Amaranthus retroflexus” value in the assay with A. retroflexus [1] and with A. retroflexus [6] was 10 throughout. Also, the “herbicidal effect index, Abutilon theophrasti” value in the assay on Indian millet [2] and in the assay with Indian millet [4] was 10 throughout. Moreover, in the assay on Echinochloa crus-galli [3], the “herbicidal effect index, Echinochloa crus-galli” value was determined as 10. The “Herbicidal effects index number, Monochoria vaginalis” value in the assay with Monochoria vaginalis came to 10. In the assay with Scirpus juncoides Rocxb., the “herbicidal effect index, S. juncoides Rocxb.” value amounted to 10. Further, the “Herbicidal effects index number, Echinochloa oryzicola” value with Echinochloa oryzicola stood at 10.
On to `Cc1cc(-n2c(=O)c(C(=O)C3=C(O)CCCC3=O)nn(C)c2=O)no1` [I-189], for which the “herbicidal effect index, Amaranthus retroflexus” value with A. retroflexus [1] and in the assay on A. retroflexus [6] was 10 each time. The “herbicidal effect index, Abutilon theophrasti” value in the assay with Indian millet [2] came to 9; in the assay with Indian millet [4], 10. Also, the “Herbicidal effects index number, Monochoria vaginalis” value with Monochoria vaginalis was determined as 10. In addition, the “herbicidal effect index, S. juncoides Rocxb.” value with Scirpus juncoides Rocxb. is on record as 10.
For the compound `COc1cc(OC)cc(-n2c(=O)c(C(=O)C3=C(O)CCCC3=O)nn(C)c2=O)c1` [Compound I-94], the “herbicidal effect index, Amaranthus retroflexus” value in the assay on A. retroflexus [1] and with A. retroflexus [6] was 10 throughout. For the same compound, the “herbicidal effect index, Abutilon theophrasti” value in the assay with Indian millet [2] and in the assay with Indian millet [4] was 10 in each case. In addition, the “Herbicidal effects index number, Monochoria vaginalis” value in the assay with Monochoria vaginalis worked out at 10. Moreover, the “herbicidal effect index, S. juncoides Rocxb.” value in the assay on Scirpus juncoides Rocxb. is 10.
As for `CCOc1ccc(-n2c(=O)c(C(=O)C3=C(O)CCCC3=O)nn(C)c2=O)cc1` [I-268], the “herbicidal effect index, Amaranthus retroflexus” value with A. retroflexus [1] and in the assay on A. retroflexus [6] was 10 in each case. The results for the “herbicidal effect index, Abutilon theophrasti” value with Indian millet [2] and in the assay with Indian millet [4] were 9 and 8, respectively. Moreover, the “herbicidal effect index, Echinochloa crus-galli” value in the assay on Echinochloa crus-galli [3] is listed as 7. Besides, the “Herbicidal effects index number, Monochoria vaginalis” value in the assay with Monochoria vaginalis stood at 10. The “herbicidal effect index, S. juncoides Rocxb.” value with Scirpus juncoides Rocxb. is recorded as 10. Further, the “Herbicidal effects index number, Echinochloa oryzicola” value with Echinochloa oryzicola is 10.
For `CSc1c(Cl)cc(-n2c(=O)c(C(=O)C3=C(O)CCCC3=O)nn(C)c2=O)cc1Cl` [I-300], the “herbicidal effect index, Amaranthus retroflexus” value with A. retroflexus [1] and in the assay on A. retroflexus [6] was 10 each time. Also, the “herbicidal effect index, Abutilon theophrasti” value in the assay with Indian millet [2] was determined as 8; with Indian millet [4], 10. Besides, in the assay with Echinochloa crus-galli [3], the “herbicidal effect index, Echinochloa crus-galli” value was found to be 9. Further, the “Herbicidal effects index number, Monochoria vaginalis” value in the assay on Monochoria vaginalis came to 10. The “herbicidal effect index, S. juncoides Rocxb.” value in the assay on Scirpus juncoides Rocxb. was 10. Moreover, the “Herbicidal effects index number, Echinochloa oryzicola” value in the assay with Echinochloa oryzicola amounted to 10.
As to `Cc1ccc(-n2c(=O)c(C(=O)O)nn(C)c2=O)nc1` [V-361], the “herbicidal effect index, Amaranthus retroflexus” value in the assay on A. retroflexus [1] stood at 10; with A. retroflexus [6] it was 8. Besides, the “herbicidal effect index, Abutilon theophrasti” value in the assay with Indian millet [2] is on record as 9; in the assay on Indian millet [4] it was 10. Moreover, the “Herbicidal effects index number, Monochoria vaginalis” value in the assay with Monochoria vaginalis is on record as 10. Moreover, in the assay on Scirpus juncoides Rocxb., the “herbicidal effect index, S. juncoides Rocxb.” value stood at 10.
Regarding `CCc1ccc(-n2c(=O)c(C(=O)C3=C(O)CCCC3=O)nn(C)c2=O)nc1` [I-462], the results for the “herbicidal effect index, Amaranthus retroflexus” value in the assay with A. retroflexus [1] and in the assay with A. retroflexus [6] were 10 and 9, respectively. The “herbicidal effect index, Abutilon theophrasti” value in the assay with Indian millet [2] and in the assay with Indian millet [4] was 10 in each case. Moreover, in the assay on Monochoria vaginalis, the “Herbicidal effects index number, Monochoria vaginalis” value was 10. The “herbicidal effect index, S. juncoides Rocxb.” value in the assay on Scirpus juncoides Rocxb. turned out to be 10.
As for `Cc1ccc(-n2c(=O)c(C(=O)C3=C(O)CCCC3=O)nn(C)c2=O)c(F)c1` [I-108], the “herbicidal effect index, Amaranthus retroflexus” value in the assay with A. retroflexus [1] and in the assay on A. retroflexus [6] was 10 throughout. Besides, the “herbicidal effect index, Abutilon theophrasti” value in the assay on Indian millet [2] is given as 9; in the assay on Indian millet [4], 8. Further, the “Herbicidal effects index number, Monochoria vaginalis” value in the assay with Monochoria vaginalis is listed as 10. The “herbicidal effect index, S. juncoides Rocxb.” value with Scirpus juncoides Rocxb. stood at 10. In the assay on Echinochloa oryzicola, the “Herbicidal effects index number, Echinochloa oryzicola” value is on record as 10.
